Assay results as given in US20190038542A1, “MOISTURIZING PERSONAL CARE COMPOSITIONS COMPRISING MONODISPERSE PHYTOGLYCOGEN NANOPARTICLES AND A FURTHER POLYSACCHARIDE” (MIREXUS BIOTECHNOLOGIES INC., priority 2016, published 2019).

Experiment: Photostability of phytoglycogen-ethyl-4-aminocinnamate conjugate versus aminocinnamate
Type: physicochemical
Details: after 4 h of exposure to UV-irradiation, thin film
Experimental: Aminocinnamate and a phytoglycogen-ethyl-4-aminocinnamate conjugate were dissolved in ethanol or in water, respectively.
Solutions were deposited as thin films onto a quartz plate and dried in air for 30 min. After drying, the samples were irradiated with UV light, as in Example 11, for 4 h and then tested for their photostability.
Photodegradation was calculated from the decrease in the maximum absorption of the respective products.

SMILES: CCOC(=O)C=Cc1ccc(N)cc1 [aminocinnamate, ethyl 4-aminocinnamate]
- activity retained: 40%
